Measurements reported in ChEMBL document CHEMBL4004821, “Design and synthesis of novel tetrandrine derivatives as potential anti-tumor agents against human hepatocellular carcinoma” (Eur J Med Chem, 2017).

Assays:
PLC-PRF-5 = assay: Cytotoxicity against human PLC/PRF/5 cells assessed as growth inhibition after 24 hrs by MTT assay; type: functional, cell-based; details: PLC-PRF-5, 24 h
[1] = Cytotoxicity against human MHCC97L cells assessed as growth inhibition after 24 hrs by MTT assay; type: functional, cell-based

Structure (SMILES)	IC50 (PLC-PRF-5) [µM]	IC50 [1] [µM]
COc1cc(NC(=O)C2CC2)c2cc1Oc1ccc(cc1)C[C@H]1c3cc(c(OC)cc3CCN1C)Oc1c(OC)c(OC)cc3c1[C@H](C2)N(C)CC3	6.45	7.68
COc1cc(NC(=O)c2ccc(Cl)cc2Cl)c2cc1Oc1ccc(cc1)C[C@H]1c3cc(c(OC)cc3CCN1C)Oc1c(OC)c(OC)cc3c1[C@H](C2)N(C)CC3	8.24	1.7
COc1cc(NC(C)=O)c2cc1Oc1ccc(cc1)C[C@H]1c3cc(c(OC)cc3CCN1C)Oc1c(OC)c(OC)cc3c1[C@H](C2)N(C)CC3	12.3	12.2
COc1cc(NC(=O)C(C)(C)C)c2cc1Oc1ccc(cc1)C[C@H]1c3cc(c(OC)cc3CCN1C)Oc1c(OC)c(OC)cc3c1[C@H](C2)N(C)CC3	5.37	6.4
COc1cc(NC(=O)c2cc[nH]n2)c2cc1Oc1ccc(cc1)C[C@H]1c3cc(c(OC)cc3CCN1C)Oc1c(OC)c(OC)cc3c1[C@H](C2)N(C)CC3	2.24	4.17
COc1cc(NC(=O)C2CCCO2)c2cc1Oc1ccc(cc1)C[C@H]1c3cc(c(OC)cc3CCN1C)Oc1c(OC)c(OC)cc3c1[C@H](C2)N(C)CC3 (some centres not stated)	7.32	5.66
CCCCCC(=O)Nc1cc(OC)c2cc1C[C@H]1c3c(cc(OC)c(OC)c3Oc3cc4c(cc3OC)CCN(C)[C@H]4Cc3ccc(cc3)O2)CCN1C	10.3	12.6
COc1cc(NC(=O)C(Cl)(Cl)Cl)c2cc1Oc1ccc(cc1)C[C@H]1c3cc(c(OC)cc3CCN1C)Oc1c(OC)c(OC)cc3c1[C@H](C2)N(C)CC3	3.22	4.26
COc1cc(NC(=O)c2cccs2)c2cc1Oc1ccc(cc1)C[C@H]1c3cc(c(OC)cc3CCN1C)Oc1c(OC)c(OC)cc3c1[C@H](C2)N(C)CC3	9.01	11.9
COc1ccc(C(=O)Nc2cc(OC)c3cc2C[C@H]2c4c(cc(OC)c(OC)c4Oc4cc5c(cc4OC)CCN(C)[C@H]5Cc4ccc(cc4)O3)CCN2C)cc1	5.32	12
COc1cc(NC(=O)c2ccccc2Cl)c2cc1Oc1ccc(cc1)C[C@H]1c3cc(c(OC)cc3CCN1C)Oc1c(OC)c(OC)cc3c1[C@H](C2)N(C)CC3	12.1	2.81
C=CCCCCCCCCC(=O)Nc1cc(OC)c2cc1C[C@H]1c3c(cc(OC)c(OC)c3Oc3cc4c(cc3OC)CCN(C)[C@H]4Cc3ccc(cc3)O2)CCN1C	11.3	10.8
COc1cc(NC(=O)c2c(Cl)cc(Cl)cc2Cl)c2cc1Oc1ccc(cc1)C[C@H]1c3cc(c(OC)cc3CCN1C)Oc1c(OC)c(OC)cc3c1[C@H](C2)N(C)CC3	6.54	4.12
COc1cc(NC(=O)c2ccc(C(F)(F)F)cc2)c2cc1Oc1ccc(cc1)C[C@H]1c3cc(c(OC)cc3CCN1C)Oc1c(OC)c(OC)cc3c1[C@H](C2)N(C)CC3	9.49	8.41
CNC(=O)c1cc(Oc2ccc(NC(=O)Nc3ccc(Cl)c(C(F)(F)F)c3)cc2)ccn1 [SORAFENIB]	29.9	34.4
COc1cc(NC(=O)OCC(C)C)c2cc1Oc1ccc(cc1)C[C@H]1c3cc(c(OC)cc3CCN1C)Oc1c(OC)c(OC)cc3c1[C@H](C2)N(C)CC3	4.66	1.4
COc1cc(NC(=O)c2ccccc2)c2cc1Oc1ccc(cc1)C[C@H]1c3cc(c(OC)cc3CCN1C)Oc1c(OC)c(OC)cc3c1[C@H](C2)N(C)CC3	9.16	7.8
COc1cc(NC(=O)c2ccc([N+](=O)[O-])o2)c2cc1Oc1ccc(cc1)C[C@H]1c3cc(c(OC)cc3CCN1C)Oc1c(OC)c(OC)cc3c1[C@H](C2)N(C)CC3	2.5	2.11

Structure (SMILES)	IC50 (PLC-PRF-5) [µM]	IC50 [1] [µM]
COc1cc(NC(=O)/C=C/c2ccccc2)c2cc1Oc1ccc(cc1)C[C@H]1c3cc(c(OC)cc3CCN1C)Oc1c(OC)c(OC)cc3c1[C@H](C2)N(C)CC3	9.81	7.7
COC(=O)C(=O)Nc1cc(OC)c2cc1C[C@H]1c3c(cc(OC)c(OC)c3Oc3cc4c(cc3OC)CCN(C)[C@H]4Cc3ccc(cc3)O2)CCN1C	3.72	2.46
COc1cc(NC(=O)COC(C)=O)c2cc1Oc1ccc(cc1)C[C@H]1c3cc(c(OC)cc3CCN1C)Oc1c(OC)c(OC)cc3c1[C@H](C2)N(C)CC3	10.2	8.41
COc1cc(NC(=O)c2ccc(Br)cc2)c2cc1Oc1ccc(cc1)C[C@H]1c3cc(c(OC)cc3CCN1C)Oc1c(OC)c(OC)cc3c1[C@H](C2)N(C)CC3	7.76	4.4
COc1cc(NC(=O)CO)c2cc1Oc1ccc(cc1)C[C@H]1c3cc(c(OC)cc3CCN1C)Oc1c(OC)c(OC)cc3c1[C@H](C2)N(C)CC3	10.2	9.09
COc1cc(NC(=O)CCCCl)c2cc1Oc1ccc(cc1)C[C@H]1c3cc(c(OC)cc3CCN1C)Oc1c(OC)c(OC)cc3c1[C@H](C2)N(C)CC3	7.22	9.76
COc1cc(NC(=O)C2CC=CC2)c2cc1Oc1ccc(cc1)C[C@H]1c3cc(c(OC)cc3CCN1C)Oc1c(OC)c(OC)cc3c1[C@H](C2)N(C)CC3	6.42	5.76
COc1cc(NC(=O)C=C(C)C)c2cc1Oc1ccc(cc1)C[C@H]1c3cc(c(OC)cc3CCN1C)Oc1c(OC)c(OC)cc3c1[C@H](C2)N(C)CC3	7.63	6.31
COc1cc(NC(=O)C(F)(F)F)c2cc1Oc1ccc(cc1)C[C@H]1c3cc(c(OC)cc3CCN1C)Oc1c(OC)c(OC)cc3c1[C@H](C2)N(C)CC3	2.24	2.41
COc1cc(NC(=O)c2cccc(Cl)c2)c2cc1Oc1ccc(cc1)C[C@H]1c3cc(c(OC)cc3CCN1C)Oc1c(OC)c(OC)cc3c1[C@H](C2)N(C)CC3	7.63	3.67
COc1cc(NC(=O)c2ccoc2)c2cc1Oc1ccc(cc1)C[C@H]1c3cc(c(OC)cc3CCN1C)Oc1c(OC)c(OC)cc3c1[C@H](C2)N(C)CC3	1.89	3.22
C=CC(=O)Nc1cc(OC)c2cc1C[C@H]1c3c(cc(OC)c(OC)c3Oc3cc4c(cc3OC)CCN(C)[C@H]4Cc3ccc(cc3)O2)CCN1C	10.7	10.4
COc1cc(NC(=O)c2cccc3ccccc23)c2cc1Oc1ccc(cc1)C[C@H]1c3cc(c(OC)cc3CCN1C)Oc1c(OC)c(OC)cc3c1[C@H](C2)N(C)CC3	5.56	5.63
COc1cc(NC(=O)c2ccc(Cl)cc2)c2cc1Oc1ccc(cc1)C[C@H]1c3cc(c(OC)cc3CCN1C)Oc1c(OC)c(OC)cc3c1[C@H](C2)N(C)CC3	11.9	10.3
COc1cc(NC(=O)c2ccc(Cl)c(Cl)c2)c2cc1Oc1ccc(cc1)C[C@H]1c3cc(c(OC)cc3CCN1C)Oc1c(OC)c(OC)cc3c1[C@H](C2)N(C)CC3	6.82	3.81
COc1ccc2cc1Oc1ccc(cc1)C[C@H]1c3cc(c(OC)cc3CCN1C)Oc1c(OC)c(OC)cc3c1[C@H](C2)N(C)CC3 [FANCHININ]	18.5	15
COc1cc(NC(=O)CCBr)c2cc1Oc1ccc(cc1)C[C@H]1c3cc(c(OC)cc3CCN1C)Oc1c(OC)c(OC)cc3c1[C@H](C2)N(C)CC3	6.34	7.86
COc1cc(NC(=O)CCCl)c2cc1Oc1ccc(cc1)C[C@H]1c3cc(c(OC)cc3CCN1C)Oc1c(OC)c(OC)cc3c1[C@H](C2)N(C)CC3	6.28	9.21
